According to patent publication EP4389827A1, “AMINOGLYCOSIDE-LINKED PHOTOSENSITIZERS” (Centre National de la Recherche Scientifique, priority 2022, dated 2024):
Where two headings read alike, the source gives them in different places.

How the values were obtained:
[1] = system: E. coli KanR; experiment: Minimal inhibitory concentration (EUCAST), with or without 660 nm irradiation; assay type: cell-based
Description: (§1) Minimal inhibitory concentrations (MICs) for selected bacteria were investigated according to the EUCAST guidelines. Serial dilutions of the compounds, photosensitizers and aminoglycosides were made in MHB-CA in 384-well plates. Stationary-phase cells were diluted in MHB-CA to have a final concentration of 5.5 × 10^5 CFU/mL. Samples were incubated in the dark for 20 minutes at 37°C and either irradiated at 660 nm for 30 minutes with a LED device or kept in the dark. Irradiated samples received a total of 168 mJ/mm^2. Plates were then incubated at 37°C for 18 hours and MICs were evaluated visually. Triplicates were done and the synergy, or fractional inhibitory concentration (FIC), was calculated according to Doern et al., 2014: FIC = (MIC of AB)/(MIC of A) + (MIC of AB)/(MIC of B) [formula]

[2] = system: K. pneumoniae LM21; experiment: as above; assay type: cell-based; details: read-out: MIC
Description: as §1

[3] = system: E. coli pET-29; experiment: as above; assay type: cell-based
Description: as §1

[4] = system: B. subtilis 168; experiment: as above; assay type: cell-based, Bacillus subtilis; details: read-out: MIC
Description: (§2) Acinetobacter baumannii DSM30011, Bacillus subtilis 168, Pseudomonas aeruginosa PA14, P. aeruginosa PAO1, Staphylococcus aureus Mu50, S. aureus Newman and S. aureus USA300 were all grown in MHB-CA at 37°C with an agitation of 180 rpm. Candida albicans SC5314 was grown in yeast extract peptone dextrose broth at 35°C with an agitation of 180 rpm.
as §1

[5] = system: P. aeruginosa PA14; experiment: as above; assay type: cell-based, Pseudomonas aeruginosa; details: for MIC: read-out: MIC
Description: as §2, §1

[6] = system: C. albicans SC5314; experiment: Minimal inhibitory concentration, with or without 660 nm irradiation; assay type: cell-based; details: Candida albicans, SC5314, light or radiation study, 18 h, read-out: MIC
Description: as §2, §1

[7] = system: S. aureus Newman persister cells; experiment: Antibacterial photodynamic therapy on persister cells; assay type: cell-based, Staphylococcus aureus; details: persister cells (24 hours, 1 mM neomycin); irradiated, 5 J/mm^2 (Figure 7a)
Description: Persister plateau and AG concentration varied from one species to another. In S. aureus USA300, a stable plateau was obtained following 6 hours of incubation with 2 mM of neomycin. […] This control is crucial to make sure that a persister state has been achieved. […] As there are no significant differences between irradiated and non-irradiated samples, however, the production of singlet oxygen may not be the factor leading to cell death. In S. aureus Newman, cells were treated for 24 hours with 1 mM of neomycin. […] Although this synergy does exist, like in S. aureus USA300, there is no significant difference in survival for irradiated and non-irradiated samples, except for Ce6.

[8] = system: P. aeruginosa PAO1; experiment: Antibacterial photodynamic therapy on planktonic cells (CFU count); assay type: cell-based; details: Pseudomonas aeruginosa, PAO1, light or radiation study, 0.5 h, 10 µM, irradiated, 5 J/mm^2 (Figure 5c), read-out: Survival drop
Description: as §2
(§3) Cells were brought to stationary phase by incubating them in MHB-CA for at least 18 hours at 37°C with 180 rpm and diluted to an optical density of 1.0 just before the experiment. Cells were incubated for 20 minutes with either the compounds, photosensitizers alone, or aminoglycosides alone. Unless stated otherwise, a concentration of 10 µM was used for all experiments and samples were irradiated for 30 minutes at 660 nm with the Solis-660C lamp from ThorLabs, receiving a total of 5 J/mm^2. After illumination, cells were washed with phosphate-buffered saline (PBS) 1X, serially diluted and plated on Mueller-Hinton agar. The next day, colony forming units (CFUs) were counted.

[9] = system: P. aeruginosa PA14; experiment: as above; assay type: cell-based; details: Pseudomonas aeruginosa, PA14, light or radiation study, 0.5 h, irradiated, 5 J/mm^2 (Figure 5a), read-out: Survival drop
Description: as §2, §3

[10] = system: P. aeruginosa PA14 persister cells; experiment: Antibacterial photodynamic therapy on persister cells; assay type: cell-based, Pseudomonas aeruginosa; details: persister cells (1 mM tobramycin, 24 hours); aPDT, 5 J/mm^2
Description: In P. aeruginosa PA14, persister cells were obtained by treating with 1 mM of tobramycin for 24 hours. The effect of aPDT was not as impactful (Figures 9a, 9b), but there was a slight drop of 1.6 and 1.1 log10 CFU/mL for Neo-Ce6 and Tobra-Ce6, respectively.

[11] = system: A. baumannii DSM30011 persister cells; experiment: as above; assay type: cell-based, Acinetobacter baumannii; details: persister cells (200 µM neomycin, 24 hours); aPDT, irradiated, 5 J/mm^2
Description: Persister cells were obtained after incubation with 200 µM of neomycin for 24 hours.

[12] = with (+) irradiation, 660 nm 30 minutes, 168 mJ/mm^2

## C=Cc1c(C)c2cc3nc(c(CC(=O)O)c4[nH]c(cc5nc(cc1[nH]2)C(C)=C5CC)c(C)c4C(=O)O)[C@@H](CCC(=O)O)[C@@H]3C [Ce6, chlorin e6]
[1]; Escherichia coli, light or radiation study, 18 h
  MIC: > 64 µM
[1]; [12]
  MIC: > 64 µM
[2]; Klebsiella pneumoniae, LM21, light or radiation study, 18 h, without (-) irradiation
  MIC: > 64 µM
[2]; [12]
  MIC: > 64 µM
[3]; Escherichia coli, PET29, light or radiation study, 18 h, without (-) irradiation
  MIC: > 64 µM
[3]; [12]
  MIC: > 64 µM
[4]; Bacillus subtilis, 168, light or radiation study, 18 h, without (-) irradiation
  MIC: > 64 µM
[4]; [12]
  MIC: > 64 µM
[5]; Pseudomonas aeruginosa, PA14, light or radiation study, 18 h, without (-) irradiation
  MIC: > 64 µM
[5]; [12]
  MIC: > 64 µM
[6]; [12]
  MIC: 32 µM
[6]; without (-) irradiation
  MIC: > 64 µM

## C=Cc1c(C)c2cc3nc(c(CC(=O)O)c4[nH]c(cc5nc(cc1[nH]2)C(C)=C5CC)c(C)c4C(=O)O)[C@@H](CCC(=O)NC[C@H]1O[C@H](O[C@@H]2[C@@H](O)[C@H](O[C@H]4O[C@H](CN)[C@@H](O)C[C@H]4N)[C@@H](N)C[C@H]2N)[C@H](O)[C@@H](N)[C@@H]1O)[C@@H]3C [Tobra-Ce6]
[7]
  persister cell survival (in words): significantly lower than in cells treated with Ce6 alone
[8]
  log reduction at 10 µM: 3.5
[9]
  log reduction at 10 µM: 2.6
[10]
  drop: 1.1 log10 CFU/mL
[11]
  drop: 1.8 log10 CFU/mL
[5]; Pseudomonas aeruginosa, PA14, light or radiation study, 18 h, with (+) irradiation, 660 nm 30 minutes, 168 mJ/mm^2
  MIC: > 16 µM
[5]; conjugate with irradiation, from FIC
  Synergy: -
[5]; without (-) irradiation
  MIC: > 16 µM
